Data from patent publication US11053204B2, “Pyrimidinyloxy benzene derivatives as herbicides” (FMC Corporation, priority 2015, dated 2021).

How the values were obtained:
Format in all cases: in vivo
[1] = test system: Italian ryegrass (Lolium multiflorum); assay: Test A postemergence, visual injury rating; details: Lolium multiflorum, post-emergence, 240 h, 0 is no effect, 100 is complete control, read-out: Ryegrass, Italian plant response rating (0 to 100 scale)
In short: (§1)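 Injury scores run from 0, no effect, to 100, complete control, judged by eye against untreated plants roughly 10 days after treatment. Chemicals carried a surfactant in a non-phytotoxic solvent and went onto loam–sand soil preemergence or onto one- to two-leaf seedlings postemergence.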

[2] = test system: barnyardgrass (Echinochloa crus-galli); assay: Test A postemergence, visual injury rating; details: Echinochloa crus-galli, post-emergence, 240 h, 0 is no effect, 100 is complete control, read-out: Barnyardgrass plant response rating (0 to 100 scale)
In short: as §1

[3] = test system: blackgrass (Alopecurus myosuroides); assay: Test A postemergence, visual injury rating; details: Alopecurus myosuroides, post-emergence, 240 h, 0 is no effect, 100 is complete control, read-out: Blackgrass plant response rating (0 to 100 scale)
In short: as §1

[4] = test system: corn (Zea mays); assay: Test A postemergence, visual injury rating; details: Zea mays, post-emergence, 240 h, 0 is no effect, 100 is complete control, read-out: Corn plant response rating (0 to 100 scale)
In short: as §1

[5] = test system: galium (catchweed bedstraw, Galium aparine); assay: Test A postemergence, visual injury rating; details: Galium, post-emergence, 240 h, 0 is no effect, 100 is complete control, read-out: Galium plant response rating (0 to 100 scale)
In short: as §1

[6] = test system: giant foxtail (Setaria faberii); assay: Test A postemergence, visual injury rating; details: Setaria faberi, post-emergence, 240 h, 0 is no effect, 100 is complete control, read-out: Foxtail, Giant plant response rating (0 to 100 scale)
In short: as §1

[7] = test system: kochia (Kochia scoparia); assay: Test A postemergence, visual injury rating; details: Bassia scoparia, post-emergence, 240 h, 0 is no effect, 100 is complete control, read-out: Kochia plant response rating (0 to 100 scale)
In short: as §1

[8] = test system: pigweed (Amaranthus retroflexus); assay: Test A postemergence, visual injury rating; details: Amaranthus retroflexus, post-emergence, 240 h, 0 is no effect, 100 is complete control, read-out: Pigweed plant response rating (0 to 100 scale)
In short: as §1

[9] = test system: ragweed (common ragweed, Ambrosia elatior); assay: Test A postemergence, visual injury rating; details: Ambrosia artemisiifolia, post-emergence, 240 h, 0 is no effect, 100 is complete control, read-out: Ragweed plant response rating (0 to 100 scale)
In short: as §1

[10] = test system: wheat (Triticum aestivum); assay: Test A postemergence, visual injury rating; details: Triticum aestivum, post-emergence, 240 h, 0 is no effect, 100 is complete control, read-out: Wheat plant response rating (0 to 100 scale)
In short: as §1

[11] = test system: blackgrass (Alopecurus myosuroides); assay: Test C postemergence, plant response rating; details: Alopecurus myosuroides, post-emergence
Source text: (§2) Seeds of plant species selected from blackgrass (Alopecurus myosuroides), ryegrass, Italian (Italian ryegrass, Lolium multiflorum), wheat (winter wheat, Triticum aestivum), galium (catchweed bedstraw, Galium aparine), corn (Zea mays), crabgrass, large (large crabgrass, Digitaria sanguinalis), foxtail, giant (giant foxtail, Setaria faberii), johnsongrass (Sorghum halepense), lambsquarters (Chenopodium album), morningglory (Ipomoea coccinea), nutsedge, yellow (yellow nutsedge, Cyperus esculentus), pigweed (Amaranthus retroflexus), ragweed (common ragweed, Ambrosia elatior), soybean (Glycine max), barnyardgrass (Echinochloa crus-galli), oilseed rape (Brassica napus), pigweed, palmer (palmer pigweed, Amaranthus palmeri), waterhemp (common waterhemp, Amaranthus rudis), velvetleaf (Abutilon theophrasti), kochia (Kochia scoparia), surinam grass (Brachiaria decumbens), nightshade (eastern black nightshade, Solanum ptycanthum), wild poinsettia (Euphorbia heterophylla), windgrass (Apera spica-venti), and oat, wild (wild oat Avena fatua), were planted into a blend of loam soil and sand or a silt loam soil and treated preemergence with test chemicals formulated in a non-phytotoxic solvent mixture which included a surfactant.
(§3) At the same time, plants selected from these crop and weed species and also chickweed (common chickweed, Stellaria media), buckwheat, wild (wild buckwheat, Polygonum convolvulus), wild mustard (Sinapis arvensis), field poppy (Papaver rhoeas), field violet (Viola arvensis), geranium, cutleaf (cutleaf geranium, Geranium dissectum), Canada thistle (Cirsium arvense), and speedwell (bird's-eye speedwell, Veronica persica), were planted in pots containing Sunshine Redi-Earth® planting medium comprising spaghnum peat moss, vermiculite, starter nutrients and dolomitic limestone and treated with postemergence applications of test chemicals formulated in the same manner. Plants ranged in height from 2 to 18 cm (1- to 4-leaf stage) for postemergence treatments. Treated plants and controls were maintained in a greenhouse for 13 to 15 d, after which time all species were compared to controls and visually evaluated. Plant response ratings, summarized in Table C, are based on a scale of 0 to 100 where 0 is no effect and 100 is complete control. A dash (-) response means no test result.

[12] = test system: chickweed (common chickweed, Stellaria media); assay: Test C postemergence, plant response rating; details: Stellaria media, post-emergence
Source text: as §2, §3

[13] = test system: foxtail, giant (giant foxtail, Setaria faberii); assay: Test C postemergence, plant response rating; details: Setaria faberi, post-emergence
Source text: as §2, §3

[14] = test system: galium (catchweed bedstraw, Galium aparine); assay: Test C postemergence, plant response rating; details: Galium, post-emergence
Source text: as §2, §3

[15] = test system: oilseed rape (Brassica napus); assay: Test C postemergence, plant response rating; details: Brassica napus, post-emergence
Source text: as §2, §3

[16] = test system: ryegrass, Italian (Italian ryegrass, Lolium multiflorum); assay: Test C postemergence, plant response rating; details: Lolium multiflorum, post-emergence
Source text: as §2, §3

[17] = test system: soybean (Glycine max); assay: Test C postemergence, plant response rating; details: Glycine max, post-emergence
Source text: as §2, §3

[18] = test system: wheat (winter wheat, Triticum aestivum); assay: Test C postemergence, plant response rating; details: Triticum aestivum, post-emergence
Source text: as §2, §3

[19] = 62 g ai/ha, scale 0 to 100 (0 no effect, 100 complete control)
[20] = 125 g ai/ha, scale 0 to 100 (0 no effect, 100 complete control)

CC(CC(F)(F)F)OC(=O)c1c(Br)cccc1Oc1ncc(Cl)cn1 (stereo not shown) [Compound 16, 3,3,3-trifluoro-1-methylpropyl 2-bromo-6-[(5-chloro-2-pyrimidinyl)oxy]benzoate]
90%: pest or weed control at 500 g/ha ([2]; 500 g ai/ha) | pest or weed control at 500 g/ha ([3]; 500 g ai/ha) | pest or weed control at 125 g/ha ([5]; 125 g ai/ha) | pest or weed control at 500 g/ha ([6]; 500 g ai/ha) | pest or weed control at 125 g/ha ([8]; 125 g ai/ha)
20%: pest or weed control at 125 g/ha ([3]; 125 g ai/ha) | plant injury at 125 g/ha ([4]; 125 g ai/ha) | pest or weed control at 125 g/ha ([6]; 125 g ai/ha) | plant injury at 125 g/ha ([10]; 125 g ai/ha) | plant injury at 500 g/ha ([10]; 500 g ai/ha) | pest or weed control at 16 g/ha ([12]; 16 g ai/ha, scale 0 to 100) | pest or weed control at 31 g/ha ([12]; 31 g ai/ha, scale 0 to 100) | pest or weed control at 31 g/ha ([13]; 31 g ai/ha, scale 0 to 100)
5%: pest or weed control at 125 g/ha [11, 20] | pest or weed control at 125 g/ha [16, 20]
0%: pest or weed control at 16 g/ha ([11]; 16 g ai/ha, scale 0 to 100) | pest or weed control at 31 g/ha ([11]; 31 g ai/ha, scale 0 to 100) | pest or weed control at 62 g/ha [11, 19] | pest or weed control at 16 g/ha ([16]; 16 g ai/ha, scale 0 to 100) | pest or weed control at 31 g/ha ([16]; 31 g ai/ha, scale 0 to 100) | pest or weed control at 62 g/ha [16, 19] | plant injury at 16 g/ha ([18]; 16 g ai/ha, scale 0 to 100) | plant injury at 31 g/ha ([18]; 31 g ai/ha, scale 0 to 100) | plant injury at 62 g/ha ([18]; 62 g ai/ha, scale 0 to 100 (0 no effect, 100 complete control), read-out: Wheat plant response rating) | plant injury at 125 g/ha [18, 20]
30%: pest or weed control at 500 g/ha ([1]; 500 g ai/ha) | pest or weed control at 500 g/ha ([9]; 500 g ai/ha) | pest or weed control at 62 g/ha [13, 19]
10%: pest or weed control at 125 g/ha ([1]; 125 g ai/ha) | pest or weed control at 125 g/ha ([2]; 125 g ai/ha) | pest or weed control at 125 g/ha ([9]; 125 g ai/ha) | pest or weed control at 16 g/ha ([13]; 16 g ai/ha, scale 0 to 100)
15%: plant injury at 16 g/ha ([15]; 16 g ai/ha, scale 0 to 100) | plant injury at 16 g/ha ([17]; 16 g ai/ha, scale 0 to 100)
60%: plant injury at 500 g/ha ([4]; 500 g ai/ha) | plant injury at 62 g/ha [15, 19]
70%: plant injury at 125 g/ha [15, 20]
55%: pest or weed control at 62 g/ha [14, 19] | pest or weed control at 125 g/ha [14, 20]
35%: pest or weed control at 125 g/ha [13, 20] | plant injury at 31 g/ha ([15]; 31 g ai/ha, scale 0 to 100) | plant injury at 31 g/ha ([17]; 31 g ai/ha, scale 0 to 100)
45%: pest or weed control at 16 g/ha ([14]; 16 g ai/ha, scale 0 to 100)
80%: pest or weed control at 125 g/ha ([7]; 125 g ai/ha) | pest or weed control at 125 g/ha [12, 20]
50%: pest or weed control at 62 g/ha [12, 19] | pest or weed control at 31 g/ha ([14]; 31 g ai/ha, scale 0 to 100) | plant injury at 62 g/ha [17, 19] | plant injury at 125 g/ha [17, 20]
100%: pest or weed control at 500 g/ha ([5]; 500 g ai/ha) | pest or weed control at 500 g/ha ([7]; 500 g ai/ha) | pest or weed control at 500 g/ha ([8]; 500 g ai/ha)
